The results in this text go back to PMC10741037, “A Peptoid-Chelator Selective to Cu^2+ That Can Extract Copper from Metallothionein-2 and Lead to the Production of ROS” (Antioxidants, 2023).

The nature of this experiment: Kinetics of ascorbate consumption assay (ROS production). Format: biochemical. The note with it: MT-2 + Cu2+ + Asc; [MT-2] = 1.6 μM, [Cu2+] = 9 μM, [Asc] = 100 μM, HEPES 10 mM pH = 7.4, absorbance at 265 nm. The procedure: Reagents, except the peptoid and protein, were commercially available and were used as received. All the solutions were prepared in milliQ water (resistance: 18.2 MΩ) immediately before experiments. A stock solution of HEPES buffer was prepared at 500 mm, pH = 7.4, and then diluted to 10 mM. Sodium ascorbate was prepared at 5 mm each day because of the quick degradation of the ascorbate. All pH values are given with a ±0.2 pH unit error. UV/Vis kinetics and ROS kinetic experiments were recorded with a spectrophotometer Agilent Cary 60 UV/Vis spectrophotometer (Agilent Technologies, Mulgrave, Australia), a double-beam, Czerny–Turner monochromator with external stirrer of cuvette holder, in 1 cm path-length quartz cuvettes, with 800 rpm stirring. The samples were prepared from stock solutions of MT-2, TB, Cu^2+, diluted to 1.6, 10, and 9 µM, respectively, in 10 mM HEPES solution, pH = 7.4. Ascorbate was diluted to 100 µM. […]
First, we investigated whether CuTB can produce ROS by itself. In a typical experiment, 1 equiv. of TB was mixed with 0.9 equiv. of Cu^2+ in HEPES buffer (10 mM, pH = 7.4) in a quartz cuvette under aerobic conditions, and after the formation of the metallopeptoid was confirmed by the stability of its UV/Vis spectrum, sodium ascorbate (Asc) was added to the cuvette and the changes in the absorbance at 265 nm were monitored by UV/Vis (ε = 14,500 M^−1 cm^−1). […]

As to “CuMT-2: complex of metallothionein-2 (MT-2) with 6 equiv. of Cu2+”, the “ascorbate consumption / redox activity” value is “redox silent”.
